Source: the NIST ThermoML archive (doi:10.1016/j.jct.2010.12.021)
± gives the expanded uncertainty stated by the source.

Experiment: molar heat capacity at constant pressure
Conditions: 101.33 kPa, Small sample (50 mg) DSC

CCCCCC[n+]1cccc2ccccc21.O=S(=O)([N-]S(=O)(=O)C(F)(F)F)C(F)(F)F [1-hexylquinolinium bis(trifluoromethylsulfonyl)amide]
Conditions | molar heat capacity at constant pressure [J/K/mol]
283.12 K, Crystal | 420.81 ± 42
283.72 K, Crystal | 421.99 ± 43
284.32 K, Crystal | 423.19 ± 43
284.92 K, Crystal | 424.39 ± 43
285.52 K, Crystal | 425.58 ± 43
286.12 K, Crystal | 426.78 ± 43
286.72 K, Crystal | 427.94 ± 43
287.32 K, Crystal | 429.07 ± 43
287.92 K, Crystal | 430.21 ± 43
288.52 K, Crystal | 431.37 ± 44
289.12 K, Crystal | 432.53 ± 44
289.72 K, Crystal | 433.71 ± 44
290.32 K, Crystal | 434.96 ± 44
290.92 K, Crystal | 436.29 ± 44
291.52 K, Crystal | 437.63 ± 44
292.12 K, Crystal | 439.04 ± 44
292.72 K, Crystal | 440.54 ± 44
293.32 K, Crystal | 442.04 ± 45
293.92 K, Crystal | 443.6 ± 45
294.52 K, Crystal | 445.19 ± 45
295.12 K, Crystal | 446.81 ± 45
295.72 K, Crystal | 448.46 ± 45
296.32 K, Crystal | 450.18 ± 45
296.92 K, Crystal | 451.92 ± 46
297.52 K, Crystal | 453.71 ± 46
298.12 K, Crystal | 455.57 ± 46
298.72 K, Crystal | 457.56 ± 46
299.32 K, Crystal | 459.55 ± 46
299.92 K, Crystal | 461.52 ± 47
300.52 K, Crystal | 463.69 ± 47
301.12 K, Crystal | 465.97 ± 47
301.72 K, Crystal | 468.26 ± 47
302.32 K, Crystal | 470.81 ± 48
302.92 K, Crystal | 473.57 ± 48
303.52 K, Crystal | 476.39 ± 48
304.12 K, Crystal | 479.52 ± 48
304.73 K, Crystal | 483.2 ± 49
305.33 K, Crystal | 487.13 ± 49
305.93 K, Crystal | 491.57 ± 50
306.53 K, Crystal | 497.37 ± 50
307.13 K, Crystal | 504.13 ± 51
307.72 K, Crystal | 510.47 ± 52
308.32 K, Crystal | 518.68 ± 52
308.92 K, Crystal | 531.59 ± 54
309.52 K, Crystal | 546.05 ± 55
310.12 K, Crystal | 573.74 ± 59
310.72 K, Crystal | 653.81 ± 69
311.32 K, Crystal | 795.64 ± 83
311.92 K, Crystal | 921.44 ± 100
312.51 K, Crystal | 1266.8 ± 170
313.09 K, Crystal | 2288.5 ± 300
313.66 K, Crystal | 3477.3 ± 420
314.23 K, Crystal | 4856 ± 550
314.8 K, Crystal | 6301.5 ± 680
315.37 K, Crystal | 7631.8 ± 810
315.94 K, Crystal | 9002.3 ± 920
316.54 K, Crystal | 9157.6 ± 930
317.17 K, Liquid | 7971.7 ± 830
317.8 K, Liquid | 6765.5 ± 720
318.43 K, Liquid | 5315.4 ± 580
319.06 K, Liquid | 3937.3 ± 450
319.69 K, Liquid | 2716.7 ± 330
320.31 K, Liquid | 1646.2 ± 210
320.92 K, Liquid | 1124.2 ± 130
321.52 K, Liquid | 783.96 ± 90
322.12 K, Liquid | 605.73 ± 64
322.72 K, Liquid | 578.47 ± 58
323.33 K, Liquid | 579.09 ± 58
323.93 K, Liquid | 579.53 ± 59
324.53 K, Liquid | 579.5 ± 59
325.13 K, Liquid | 579.81 ± 59
325.73 K, Liquid | 580.31 ± 59
326.33 K, Liquid | 580.35 ± 59
326.93 K, Liquid | 580.48 ± 59
327.53 K, Liquid | 580.91 ± 59
329.93 K, Liquid | 582.05 ± 59
330.53 K, Liquid | 582.3 ± 59
331.13 K, Liquid | 582.61 ± 59
331.73 K, Liquid | 582.85 ± 59
332.33 K, Liquid | 583.14 ± 59
332.93 K, Liquid | 583.5 ± 59
333.53 K, Liquid | 583.82 ± 59
334.13 K, Liquid | 584.2 ± 59
334.73 K, Liquid | 584.61 ± 59
335.33 K, Liquid | 585.06 ± 59
335.93 K, Liquid | 585.62 ± 59
336.53 K, Liquid | 586.11 ± 59
337.13 K, Liquid | 586.52 ± 59
337.73 K, Liquid | 586.92 ± 59
338.33 K, Liquid | 587.33 ± 59
338.93 K, Liquid | 587.69 ± 59
339.53 K, Liquid | 587.94 ± 59
340.13 K, Liquid | 588.08 ± 59
340.73 K, Liquid | 588.35 ± 59
341.33 K, Liquid | 588.62 ± 59
341.93 K, Liquid | 588.83 ± 59
342.54 K, Liquid | 589.03 ± 59
343.13 K, Liquid | 589.23 ± 60
343.73 K, Liquid | 589.47 ± 60
344.33 K, Liquid | 589.68 ± 60
344.93 K, Liquid | 589.8 ± 60
345.53 K, Liquid | 589.91 ± 60
346.13 K, Liquid | 590.01 ± 60
346.73 K, Liquid | 590.17 ± 60
347.33 K, Liquid | 590.33 ± 60
347.93 K, Liquid | 590.52 ± 60
348.53 K, Liquid | 590.79 ± 60
349.13 K, Liquid | 591.11 ± 60
349.73 K, Liquid | 591.46 ± 60
350.33 K, Liquid | 591.81 ± 60
350.93 K, Liquid | 592.11 ± 60
351.53 K, Liquid | 592.4 ± 60
352.13 K, Liquid | 592.64 ± 60
352.73 K, Liquid | 592.89 ± 60
353.33 K, Liquid | 593.12 ± 60
353.93 K, Liquid | 593.32 ± 60
354.53 K, Liquid | 593.58 ± 60
355.13 K, Liquid | 593.86 ± 60
355.73 K, Liquid | 594.11 ± 60
356.33 K, Liquid | 594.37 ± 60
356.93 K, Liquid | 594.62 ± 60
357.53 K, Liquid | 594.9 ± 60
358.13 K, Liquid | 595.2 ± 60
358.73 K, Liquid | 595.42 ± 60
359.33 K, Liquid | 595.58 ± 60
359.93 K, Liquid | 595.78 ± 60
360.53 K, Liquid | 595.96 ± 60
361.13 K, Liquid | 596.12 ± 60
361.73 K, Liquid | 596.19 ± 60
362.33 K, Liquid | 596.29 ± 60
362.93 K, Liquid | 596.51 ± 60
363.53 K, Liquid | 596.79 ± 60
364.13 K, Liquid | 597.06 ± 60
364.73 K, Liquid | 597.35 ± 60
365.33 K, Liquid | 597.68 ± 60
365.93 K, Liquid | 598.06 ± 60
366.53 K, Liquid | 598.36 ± 60
367.13 K, Liquid | 598.59 ± 60
367.73 K, Liquid | 598.82 ± 60
368.33 K, Liquid | 599 ± 60
368.93 K, Liquid | 599.12 ± 61
369.53 K, Liquid | 599.24 ± 61
370.13 K, Liquid | 599.38 ± 61
